Among the test systems are OVCAR-4 ovarian; HOP-92 NSCLC; HCT-116 colon; HOP-62 NSCLC; SF-539 CNS; EKVX NSCLC; MDA-N; NCI-H522 lung; CAKI-1 renal; K-562 leukemia.
Common to all, as to test: growth of human tumour cells (NCI), 48 h

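Five concentrations, 48 hours, 96-well plates. At the GI50, growth is halved. TGI: concentration producing complete growth inhibition.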

In the case of `CN1CCN(c2ccc(-n3cc(C(=O)O)c(=O)c4cc(F)c(N5CCN(C)CC5)cc43)nc2)CC1`, the TGI in the assay with OVCAR-4 ovarian, in the assay with HOP-92 NSCLC, in the assay with HCT-116 colon, with HOP-62 NSCLC, in the assay on SF-539 CNS and in the assay on EKVX NSCLC was more than 100 µM each time. In addition, the TGI in the assay on MDA-N, in the assay on NCI-H522 lung, in the assay on CAKI-1 renal and with K-562 leukemia was more than 100 µM throughout.
For `O=C(/C(=C/c1cccs1)c1ccccc1)c1ccccc1`, the TGI was more than 100 µM in the assay on OVCAR-4 ovarian; more than 100 µM with HOP-92 NSCLC; more than 100 µM in the assay with HCT-116 colon; 58.2 µM with HOP-62 NSCLC; 87.6 µM with SF-539 CNS; more than 100 µM in the assay on EKVX NSCLC. In addition, the TGI in the assay on MDA-N, in the assay with NCI-H522 lung, in the assay with CAKI-1 renal and in the assay on K-562 leukemia was more than 100 µM throughout.
For the molecule `N#CC(c1cc(Cl)ncn1)c1nc2ccccc2s1` (configuration not stated), the TGI in the assay with OVCAR-4 ovarian was determined as 91 µM; in the assay on HOP-92 NSCLC, 11.1 µM; in the assay on HCT-116 colon, 22.7 µM; in the assay with HOP-62 NSCLC, 43.8 µM; with SF-539 CNS, 50.5 µM; with EKVX NSCLC, 58.1 µM. In addition, the TGI with MDA-N was 24.1 µM; in the assay with NCI-H522 lung it was 4.47 µM; in the assay on CAKI-1 renal it was 82.1 µM; in the assay with K-562 leukemia it was more than 100 µM.
Regarding `O=C(O)c1cc(Sc2ccc([N+](=O)[O-])c(C(=O)O)c2)ccc1[N+](=O)[O-]`, the TGI with OVCAR-4 ovarian, with HOP-92 NSCLC, in the assay with HCT-116 colon, in the assay on HOP-62 NSCLC, in the assay on SF-539 CNS and in the assay with EKVX NSCLC was more than 100 µM in each case. Further, the TGI in the assay on MDA-N, with NCI-H522 lung, in the assay with CAKI-1 renal and in the assay on K-562 leukemia was more than 100 µM each time. The GI50 in the assay on NCI-H522 lung and in the assay on CAKI-1 renal was more than 100 µM throughout.
On to `COC(=O)CCC(=O)c1ccc2c(c1)CC1(C2)Cc2ccc3c(c2C1)CCCC3=O` (configuration not stated), for which the TGI was more than 74 µM with OVCAR-4 ovarian; 64.7 µM with HOP-92 NSCLC; more than 100 µM with HCT-116 colon; 97.4 µM in the assay on HOP-62 NSCLC; 42.6 µM in the assay on SF-539 CNS; more than 100 µM in the assay with EKVX NSCLC. The TGI in the assay on MDA-N was 47.9 µM; with NCI-H522 lung, more than 73.5 µM; in the assay with CAKI-1 renal, 78.1 µM; in the assay on K-562 leukemia it was 9.44 µM.
For the molecule `O=C1OC(c2ccccc2)N/C1=C\c1ccc2c(c1)OCO2` (configuration not stated), the TGI was more than 88 µM in the assay on OVCAR-4 ovarian; more than 100 µM in the assay with HOP-92 NSCLC; more than 100 µM with HCT-116 colon; more than 100 µM in the assay on HOP-62 NSCLC; more than 31.6 µM in the assay with SF-539 CNS; more than 100 µM in the assay on EKVX NSCLC. Moreover, the TGI in the assay on MDA-N, with NCI-H522 lung, in the assay with CAKI-1 renal and in the assay on K-562 leukemia was more than 100 µM throughout.
Consider `S=C1SC(c2ccc(Cl)cc2)(c2ccc(Cl)cc2)c2ccccc21`, for which the TGI in the assay on OVCAR-4 ovarian, with HOP-92 NSCLC, in the assay with HCT-116 colon, in the assay on HOP-62 NSCLC, with SF-539 CNS and in the assay with EKVX NSCLC was more than 100 µM each time. The TGI in the assay with MDA-N, with NCI-H522 lung, with CAKI-1 renal and in the assay with K-562 leukemia was more than 100 µM in each case.
Consider `O=C(N/C(=C\c1ccccc1)C1Nc2ccccc2C(=O)O1)c1ccccc1` (configuration not stated), for which the TGI with OVCAR-4 ovarian is more than 100 µM; in the assay on HOP-92 NSCLC, more than 100 µM; with HCT-116 colon it was 36.8 µM; with HOP-62 NSCLC it was 61.6 µM; with SF-539 CNS, 43.7 µM; in the assay with EKVX NSCLC it was more than 100 µM. Moreover, the TGI is 56.6 µM with MDA-N, 33.5 µM in the assay on NCI-H522 lung, more than 100 µM with CAKI-1 renal and 51.9 µM in the assay with K-562 leukemia.
As for `CC(NC(=O)C(N)CC(=O)O)NC(=O)N1CCCC1` (configuration not stated), the TGI with OVCAR-4 ovarian, in the assay with HOP-92 NSCLC, in the assay with HCT-116 colon, with HOP-62 NSCLC, in the assay on SF-539 CNS and in the assay with EKVX NSCLC was more than 100 µM in each case. For the same molecule, the TGI in the assay on MDA-N, in the assay with NCI-H522 lung, with CAKI-1 renal and with K-562 leukemia was more than 100 µM throughout.
Consider `C[C@]12CCC(=O)C=C1CC[C@@H]1C2CC[C@]2(C)Nc3c(ncn3-c3ccc(F)cc3)CC12` (some centres not stated), for which the TGI in the assay on OVCAR-4 ovarian is more than 100 µM; with HOP-92 NSCLC, more than 100 µM; in the assay with HCT-116 colon, 32.8 µM; in the assay with HOP-62 NSCLC it was more than 100 µM; in the assay on SF-539 CNS, 34.3 µM; in the assay on EKVX NSCLC, more than 100 µM. Further, the TGI in the assay on MDA-N is 42.8 µM; in the assay with NCI-H522 lung, 55.1 µM; in the assay on CAKI-1 renal, more than 100 µM; in the assay on K-562 leukemia it was 69 µM.
Turning to `Cc1cc(C#N)c(Nc2c(C)cccc2[N+](=O)[O-])s1`, the TGI was more than 100 µM in the assay with OVCAR-4 ovarian; 68.3 µM with HOP-92 NSCLC; more than 100 µM in the assay on HCT-116 colon; 75.2 µM in the assay with HOP-62 NSCLC; more than 100 µM in the assay with SF-539 CNS; more than 100 µM in the assay on EKVX NSCLC. The TGI is more than 100 µM with MDA-N, 73.6 µM with NCI-H522 lung, more than 100 µM in the assay on CAKI-1 renal and more than 100 µM with K-562 leukemia.
Turning to `COC1(C)C=NCC(C)(C)NC(=O)C(C)(OC)C=NCC(C)(C)NC1=O` (configuration not stated), the TGI in the assay with OVCAR-4 ovarian, with HOP-92 NSCLC, in the assay on HCT-116 colon, with HOP-62 NSCLC, in the assay with SF-539 CNS and in the assay with EKVX NSCLC was more than 10 µM each time. The TGI in the assay on MDA-N, in the assay with NCI-H522 lung, with CAKI-1 renal and in the assay on K-562 leukemia was more than 10 µM each time.
Turning to `Cc1nn(C)c2c1C(=O)N(C)CC(=O)N2C`, the TGI with OVCAR-4 ovarian, in the assay on HOP-92 NSCLC, in the assay on HCT-116 colon, with HOP-62 NSCLC, in the assay on SF-539 CNS and in the assay on EKVX NSCLC was more than 100 µM throughout. Besides, the TGI in the assay with MDA-N, in the assay on NCI-H522 lung, in the assay on CAKI-1 renal and in the assay on K-562 leukemia was more than 100 µM each time.
As to `CCn1cnc2c(NC(C)=O)ncnc21`, the TGI with OVCAR-4 ovarian, in the assay on HOP-92 NSCLC, in the assay on HCT-116 colon, in the assay with HOP-62 NSCLC, in the assay on SF-539 CNS and with EKVX NSCLC was more than 100 µM each time. The TGI in the assay with MDA-N, in the assay with NCI-H522 lung, in the assay with CAKI-1 renal and in the assay on K-562 leukemia was more than 100 µM each time.
Consider `CCCCCCCCCCCCP(=O)(O)OCC(N)C(=O)O` (configuration not stated), for which the TGI with OVCAR-4 ovarian was more than 100 µM; with HOP-92 NSCLC it was 71.6 µM; in the assay on HCT-116 colon it was 30.3 µM; with HOP-62 NSCLC it was 31.6 µM; with SF-539 CNS it was 47.4 µM; in the assay with EKVX NSCLC it was more than 100 µM. Besides, the TGI in the assay on MDA-N was 55.4 µM; in the assay with NCI-H522 lung, more than 100 µM; with CAKI-1 renal, more than 100 µM; in the assay with K-562 leukemia, more than 100 µM.
`CC1OC(OC2CC(O)(C(=O)CO)Cc3c(O)c4c(c(O)c32)C(=O)c2ccccc2C4=O)CC(N)C1O` (configuration not stated): the TGI in the assay on OVCAR-4 ovarian amounted to 3.15 µM; with HOP-92 NSCLC, 1.04 µM; in the assay on HCT-116 colon, 0.407 µM; in the assay on HOP-62 NSCLC it was 0.0782 µM; in the assay on SF-539 CNS, 0.121 µM; in the assay with EKVX NSCLC it was 1.82 µM. The TGI in the assay with MDA-N turned out to be 0.613 µM; with NCI-H522 lung, 0.1 µM; in the assay with CAKI-1 renal, 0.088 µM; in the assay with K-562 leukemia, 9.2 µM.
For the molecule `O=C(O)C(F)(OC(F)(F)C(F)(OC(F)(F)C(F)(F)C(F)(F)F)C(F)(F)F)C(F)(F)F` (configuration not stated), the TGI with OVCAR-4 ovarian, in the assay on HOP-92 NSCLC, with HCT-116 colon, in the assay with HOP-62 NSCLC, in the assay with SF-539 CNS and in the assay with EKVX NSCLC was more than 100 µM each time. Moreover, the TGI with MDA-N, with NCI-H522 lung, in the assay with CAKI-1 renal and with K-562 leukemia was more than 100 µM throughout.
As to `CC(=O)OCc1cn(S(=O)(=O)c2ccc(C)cc2)cn1`, the TGI with OVCAR-4 ovarian, in the assay with HOP-92 NSCLC, with HCT-116 colon, in the assay with HOP-62 NSCLC, with SF-539 CNS and with EKVX NSCLC was more than 100 µM each time. In addition, the TGI in the assay on MDA-N is 52.6 µM; in the assay on NCI-H522 lung it was more than 100 µM; with CAKI-1 renal it was more than 100 µM; in the assay with K-562 leukemia it was more than 100 µM.
`CCOC1SC(SC)=NN1C(=O)C(OC(C)=O)C(OC(C)=O)C(OC(C)=O)C(OC(C)=O)C(=O)N1N=C(SC)SC1OCC` (configuration not stated): the TGI in the assay with OVCAR-4 ovarian, with HOP-92 NSCLC, in the assay with HCT-116 colon, in the assay on HOP-62 NSCLC, in the assay on SF-539 CNS and in the assay with EKVX NSCLC was more than 100 µM each time. Further, the TGI in the assay on MDA-N, with NCI-H522 lung, with CAKI-1 renal and with K-562 leukemia was more than 100 µM in each case.
Take `O=C1C[C@H]2[C@H](c3ccc(Br)cc3)[C@H]3C(=O)c4ccccc4NC(=O)[C@@H]3[C@@]2(O)c2ccccc2N1`: the TGI in the assay with OVCAR-4 ovarian is more than 100 µM; in the assay with HOP-92 NSCLC, 4.96 µM; in the assay on HCT-116 colon it was 33.1 µM; in the assay on HOP-62 NSCLC, 49.7 µM; in the assay with SF-539 CNS, 54.7 µM; with EKVX NSCLC, more than 100 µM. In addition, the TGI in the assay with MDA-N was found to be 55 µM; in the assay on NCI-H522 lung, 69.3 µM; in the assay on CAKI-1 renal, 28.3 µM; in the assay on K-562 leukemia, 48.9 µM.
For the molecule `CCNc1ncnc2n[nH]nc12`, the TGI in the assay with OVCAR-4 ovarian, in the assay on HOP-92 NSCLC, with HCT-116 colon, in the assay with HOP-62 NSCLC, in the assay with SF-539 CNS and in the assay on EKVX NSCLC was more than 100 µM in each case. The TGI in the assay on MDA-N, with NCI-H522 lung, in the assay with CAKI-1 renal and with K-562 leukemia was more than 100 µM throughout.
In the case of `COC(=O)[C@@H]1C[C@]2(CC=C(C)C)c3ccccc3N(S(=O)(=O)c3ccccc3)[C@@H]2N1C(=O)OC`, the TGI in the assay with OVCAR-4 ovarian was more than 100 µM; with HOP-92 NSCLC, more than 100 µM; in the assay with HCT-116 colon it was more than 100 µM; with HOP-62 NSCLC it was more than 100 µM; with SF-539 CNS it was 86.3 µM; in the assay with EKVX NSCLC it was 27.5 µM. Further, the TGI is more than 100 µM in the assay with MDA-N, 67.3 µM in the assay on NCI-H522 lung, more than 100 µM in the assay on CAKI-1 renal and more than 100 µM with K-562 leukemia.

The values are drawn from PubChem BioAssay (NCI).
